Our source for the IC50 and Kd values is US12281125B2, “Rapamycin derivatives” (NOVARTIS AG, priority 2018, dated 2025).

Test [1] concerns mTORc1 signaling, pS6 (Ser240/244) in MEF TSCl−/− cells. The test is described as follows: Cell-based assay for rapalog potency (pS6) in MEF TSCl−/− cells. As to conditions: Mus musculus, 2 hours treatment, average from multiple assays. The method, then: Rapalog potency was determined using MEF TSCl−/− cell based assay. MEF TSCl−/− cells are Mouse Embryonic Fibroblasts deficient in Tuberous sclerosis protein—TSCl, which negatively regulates mTORc1 signaling and thus display constitutive mTORc1 activation, resulting in phosphorylation (activation) of downstream molecules. This cell-based assay is used to measure inhibition (de-phosphorylation) of S6 and 4EBP1 by rapalogs or other mTOR inhibitors.
MEF TSCl−/− cells were plated on Poly-D-lysine coated 384 well Griener clear bottom plates and incubated overnight at 37° C., 5% CO2. On the following day, cells were washed 8 times with “Hard starve” solution (1 L DPBS+1 g D-(+) glucose+10 ml of 7.5% Sodium Bicarbonate+20 ml of 1M HEPES) and incubated for further 2 hours in the same solution. Cells were next treated with compounds with decreasing concentrations (8 points at 3.16 fold dilutions) and incubated for 2 hours at 37° C., 5% CO2. Cells were fixed with 4% paraformaldehyde for 30 min and washed 5 times with TBS-EDTA followed by immuno-staining with fluorescent tag labeled antibodies for pS6 (Ser240/244) (Cell Signaling #9468) and p4EBP1 (Thr 37/46) (Cell Signaling #5123). Nuclei were visualized with Hoechst (ThermoFisher Scientific #H3570) staining. Cells were imaged (InCell 600) using respective fluorescence channels and the potency of mTOR inhibitors was defined by pS6 IC50 (nM).
In vitro potency of mTOR inhibitors was defined by pS6 IC50 (nM) in MEF TSCl−/− cells.
IC50 values are calculated as the average from multiple assays.

A further test concerns the target T1, FKBP12 (Homo sapiens, UniProt P62942).
T1 construct: made in house; host or cells: E. coli
The test is described as follows: SPR assay, binding affinity to FKBP12. As to conditions: equilibrium dissociation constant. The source says:
(§1) N-terminal avi-his6-tagged FKBP fusion proteins were expressed in E. coli and purified with nickel chromatography using standard procedures. Biotinylated his-avi-FKBPs were immobilized on a streptavidin chip using a Biacore 8K (GE Healthcare). […] The single-cycle kinetics data were fit to a 1:1 binding model to measure the association rate ka (1/Ms), the dissociation rate kd (1/s) and the affinity KD (M). […] The single-cycle kinetics data was fit to a 1:1 binding model to measure the association rate ka (1/Ms), the dissociation rate kd (1/s) and the apparent affinity KD (M) for ternary complex formation. The equilibrium dissociation constants (KD) to FKBP12, FKBP51, and FKBP52 are shown below in Table 6.

The target of the next test is T2, FKBP51 (Homo sapiens, UniProt Q13451).
T2 construct: made in house; host or cells: E. coli
T2 sequence (Q13451 1-457): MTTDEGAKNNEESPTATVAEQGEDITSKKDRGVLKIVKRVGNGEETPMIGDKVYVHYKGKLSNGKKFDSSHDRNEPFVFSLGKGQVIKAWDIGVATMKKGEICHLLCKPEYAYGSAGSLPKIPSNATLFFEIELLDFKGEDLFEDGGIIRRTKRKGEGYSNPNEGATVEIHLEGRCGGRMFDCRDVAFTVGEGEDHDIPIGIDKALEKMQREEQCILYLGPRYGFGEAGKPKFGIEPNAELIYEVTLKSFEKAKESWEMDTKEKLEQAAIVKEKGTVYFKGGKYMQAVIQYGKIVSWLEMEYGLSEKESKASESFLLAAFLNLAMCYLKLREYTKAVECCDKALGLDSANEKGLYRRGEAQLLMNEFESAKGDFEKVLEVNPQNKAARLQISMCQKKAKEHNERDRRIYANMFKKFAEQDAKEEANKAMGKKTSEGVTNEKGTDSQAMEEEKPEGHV
The experiment in a line: SPR assay, binding affinity to FKBP51. Conditions: equilibrium dissociation constant.
Source text: as §1
Background: SPR reads the build-up and loss of mass on a sensor chip optically.

A further test has as its target T3, FKBP52 (Homo sapiens, UniProt Q02790).
T3 construct: made in house; host or cells: E. coli
T3 sequence (Q02790 1-459): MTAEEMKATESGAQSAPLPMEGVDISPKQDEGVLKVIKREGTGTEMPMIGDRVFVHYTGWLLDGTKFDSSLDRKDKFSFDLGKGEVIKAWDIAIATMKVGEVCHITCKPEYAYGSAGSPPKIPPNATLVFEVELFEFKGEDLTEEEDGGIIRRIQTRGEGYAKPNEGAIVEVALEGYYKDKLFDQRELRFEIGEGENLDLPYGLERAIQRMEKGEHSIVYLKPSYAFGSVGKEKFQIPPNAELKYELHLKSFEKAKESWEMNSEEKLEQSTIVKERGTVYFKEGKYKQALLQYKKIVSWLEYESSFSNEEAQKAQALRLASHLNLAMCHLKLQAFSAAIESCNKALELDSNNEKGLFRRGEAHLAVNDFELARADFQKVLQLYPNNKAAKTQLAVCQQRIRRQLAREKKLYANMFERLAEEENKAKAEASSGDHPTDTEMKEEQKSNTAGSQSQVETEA
The experiment in a line: SPR assay, binding affinity to FKBP52. Conditions: equilibrium dissociation constant. The method, then:
N-terminal avi-his6-tagged FKBP fusion proteins were expressed in E. coli and purified with nickel chromatography using standard procedures. Biotinylated his-avi-FKBPs were immobilized on a streptavidin chip using a Biacore 8K (GE Healthcare). To determine the kinetics-affinity of the rapalogs for FKBPs, rapalogs were diluted in DMSO to 50× working concentration. Next, 3.1 uLs of each rapalog solution was added to 150 uLs of buffer (50 mM Tris pH 7.5/150 mM NaCl/0.01% Tween 20/1 mM DTT) in a 384 deep well plate (greiner bio-one/78127) and mixed using a Biomek FX. The rapalog solution gradients (6 concentrations/2 fold dilutions, 3.1-100 nM or 31-1000 nM or 310-10000 nM) were then injected at 45 uL/min for 120 seconds: contact time and dissociation time was 1800 seconds in running buffer (50 mM Tris pH 7.5/150 mM NaCl/0.01% Tween 20/1 mM DTT/2% DMSO). The single-cycle kinetics data were fit to a 1:1 binding model to measure the association rate ka (1/Ms), the dissociation rate kd (1/s) and the affinity KD (M). […] 3.1 uLs of the 500 μM rapalog solutions were added to 150 uLs of the mTOR samples in a 384 deep well plate (greiner bio-one/78127) and mixed using a Biomek FX. The mTOR solution gradients were then injected at 45 uL/min for 120 seconds: contact time and dissociation time was 1800 seconds in running buffer (50 mM Tris pH 7.5/150 mM NaCl/0.01% Tween 20/1 mM DTT/2% DMSO). The single-cycle kinetics data was fit to a 1:1 binding model to measure the association rate ka (1/Ms), the dissociation rate kd (1/s) and the apparent affinity KD (M) for ternary complex formation.
The equilibrium dissociation constants (KD) to FKBP12, FKBP51, and FKBP52 are shown below in Table 6.

Each structure is given as a SMILES string. Some results are limits rather than exact numbers.

T1 sequence (P62942 whole entry): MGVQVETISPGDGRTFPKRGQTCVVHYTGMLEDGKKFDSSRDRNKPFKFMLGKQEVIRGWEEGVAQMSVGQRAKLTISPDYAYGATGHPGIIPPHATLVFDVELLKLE

Usually IC50 stands for the midpoint of a concentration-inhibition curve. The Kd is a measure of binding affinity in units of concentration. Lower therefore signals higher affinity. In test [1], `CO[C@@H]1C[C@H](C[C@@H](C)[C@@H]2CC[C@H](C)/C=C(\C)[C@@H](O)[C@@H](OC)C(=O)[C@H](C)C[C@H](C)/C=C/C=C/C=C(\C)[C@@H](NS(=O)(=O)C3CC3)C[C@@H]3CC[C@@H](C)[C@@](O)(O3)C(=O)C(=O)N3CCCC[C@H]3C(=O)O2)CC[C@H]1O` [Compound 11] gave a 50% inhibitory concentration (IC50) of 0.94 nM. Also, the figures for the equilibrium dissociation constant (Kd) at FKBP12, on FKBP51 and on FKBP52 were 0.29 nM, 45 nM and 63 nM, respectively.
On the same counts, the results for `CO[C@@H]1C[C@H](C[C@@H](C)[C@@H]2CC[C@H](C)/C=C(\C)[C@@H](O)[C@@H](OC)C(=O)[C@H](C)C[C@H](C)/C=C/C=C/C=C(\C)[C@H](NS(=O)(=O)C3CC3)C[C@@H]3CC[C@@H](C)[C@@](O)(O3)C(=O)C(=O)N3CCCC[C@H]3C(=O)O2)CC[C@H]1O` [Compound 12] are 1.1 nM, 0.39 nM, 117 nM and 135 nM.
Taken in the same sequence, the figures for `CO[C@@H]1C[C@H](C[C@@H](C)[C@@H]2CC[C@H](C)/C=C(\C)[C@@H](O)[C@@H](OC)C(=O)[C@H](C)C[C@H](C)/C=C/C=C/C=C(\C)[C@@H](NS(C)(=O)=O)C[C@@H]3CC[C@@H](C)[C@@](O)(O3)C(=O)C(=O)N3CCCC[C@H]3C(=O)O2)CC[C@H]1OCCO` [Compound 26] were 0.086 nM, 0.83 nM, 47 nM and 80 nM.
In test [1], `CCS(=O)(=O)N[C@@H]1C[C@@H]2CC[C@@H](C)[C@@](O)(O2)C(=O)C(=O)N2CCCC[C@H]2C(=O)O[C@H]([C@H](C)C[C@@H]2CC[C@@H](O)[C@H](OC)C2)CC[C@H](C)/C=C(\C)[C@@H](O)[C@@H](OC)C(=O)[C@H](C)C[C@H](C)/C=C/C=C/C=C/1C` [Compound 4] returned a half-maximal inhibitory concentration (IC50) of 1.2 nM. The dissociation constant (Kd) at FKBP12 was found to be 0.55 nM; at FKBP51, 315 nM; on FKBP52, 256 nM.
`CO[C@@H]1C[C@H](C[C@@H](C)[C@@H]2CC[C@H](C)/C=C(\C)[C@@H](O)[C@@H](OC)C(=O)[C@H](C)C[C@H](C)/C=C/C=C/C=C(\C)C(N(C)S(C)(=O)=O)C[C@@H]3CC[C@@H](C)[C@@](O)(O3)C(=O)C(=O)N3CCCC[C@H]3C(=O)O2)CC[C@H]1O` (single isomer, unassigned) [Compound 42] showed a half-inhibitory concentration (IC50) in test [1] of 0.3 nM. The Kd was found to be 6.5 nM on FKBP12, 1230 nM on FKBP51 and 1380 nM on FKBP52.
Taken in the same sequence, the figures for `CO[C@@H]1C[C@H](C[C@@H](C)[C@@H]2CC[C@H](C)/C=C(\C)[C@@H](O)[C@@H](OC)C(=O)[C@H](C)C[C@H](C)/C=C/C=C/C=C(\C)[C@H](NS(C)(=O)=O)C[C@@H]3CC[C@@H](C)[C@@](O)(O3)C(=O)C(=O)N3CCCC[C@H]3C(=O)O2)CC[C@H]1O` [Compound 1] were 0.55 nM, 0.061 nM, 11 nM and 9.8 nM.
On the same counts, the results for `CCS(=O)(=O)N[C@H]1C[C@@H]2CC[C@@H](C)[C@@](O)(O2)C(=O)C(=O)N2CCCC[C@H]2C(=O)O[C@H]([C@H](C)C[C@@H]2CC[C@@H](O)[C@H](OC)C2)CC[C@H](C)/C=C(\C)[C@@H](O)[C@@H](OC)C(=O)[C@H](C)C[C@H](C)/C=C/C=C/C=C/1C` [Compound 3] are 0.26 nM, 0.2 nM, 40 nM and 61 nM.
In test [1], `CO[C@@H]1C[C@H](C[C@@H](C)[C@@H]2CC[C@H](C)/C=C(\C)[C@@H](O)[C@@H](OC)C(=O)[C@H](C)C[C@H](C)/C=C/C=C/C=C(\C)[C@H](NS(=O)(=O)C(C)C)C[C@@H]3CC[C@@H](C)[C@@](O)(O3)C(=O)C(=O)N3CCCC[C@H]3C(=O)O2)CC[C@H]1O` [Compound 8] displayed an IC50 of 4.5 nM.
Still for that read-out and setting: under `CO[C@@H]1C[C@H](C[C@@H](C)[C@@H]2CC[C@H](C)/C=C(\C)[C@@H](O)[C@@H](OC)C(=O)[C@H](C)C[C@H](C)/C=C/C=C/C=C(\C)[C@@H](N)C[C@@H]3CC[C@@H](C)[C@@](O)(O3)C(=O)C(=O)N3CCCC[C@H]3C(=O)O2)CC[C@H]1O` [Compound 28] stands 0.35 nM; under `CO[C@@H]1C[C@H](C[C@@H](C)[C@@H]2CC[C@H](C)/C=C(\C)[C@@H](O)[C@@H](OC)C(=O)[C@H](C)C[C@H](C)/C=C/C=C/C=C(\C)[C@H](N(O)C(=O)OC(C)(C)C)C[C@@H]3CC[C@@H](C)[C@@](O)(O3)C(=O)C(=O)N3CCCC[C@H]3C(=O)O2)CC[C@H]1O` [Compound 34], 27 nM.
Same read-out and setting: next, `CO[C@@H]1C[C@H](C[C@@H](C)[C@@H]2CC[C@H](C)/C=C(\C)[C@@H](O)[C@@H](OC)C(=O)[C@H](C)C[C@H](C)/C=C/C=C/C=C(\C)[C@H](NCCS(=O)(=O)O)C[C@@H]3CC[C@@H](C)[C@@](O)(O3)C(=O)C(=O)N3CCCC[C@H]3C(=O)O2)CC[C@H]1O` [Compound 39]: > 500 nM; `CO[C@@H]1C[C@H](C[C@@H](C)[C@@H]2CC[C@H](C)/C=C(\C)[C@@H](O)[C@@H](OC)C(=O)[C@H](C)C[C@H](C)/C=C/C=C/C=C(\C)[C@H](NS(=O)(=O)CC(C)C)C[C@@H]3CC[C@@H](C)[C@@](O)(O3)C(=O)C(=O)N3CCCC[C@H]3C(=O)O2)CC[C@H]1O` [Compound 10]: 12 nM.
On the same count and under the same terms, next, `CO[C@@H]1C[C@H](C[C@@H](C)[C@@H]2CC[C@H](C)/C=C(\C)[C@@H](O)[C@@H](OC)C(=O)[C@H](C)C[C@H](C)/C=C/C=C/C=C(\C)C(NC(=O)OC(C)(C)C)C[C@@H]3CC[C@@H](C)[C@@](O)(O3)C(=O)C(=O)N3CCCC[C@H]3C(=O)O2)CC[C@H]1O` (stereo partly shown) [Intermediate 8]: 0.18 nM.
